Assays:
Assay type in all cases: functional
[1] = tested on: Bacteroides stercoris; test: Antimicrobial activity against Bacteroides stercoris by agar dilution method in presence of 5% laked sheep blood
[2] = tested on: Fusobacterium necrophorum; test: Antimicrobial activity against Fusobacterium necrophorum by agar dilution method in presence of 5% laked sheep blood
[3] = tested on: Fusobacterium varium; test: Antimicrobial activity against Fusobacterium varium by agar dilution method in presence of 5% laked sheep blood
[4] = tested on: Fusobacterium sp.; test: Antimicrobial activity against Fusobacterium sp. by agar dilution method in presence of 5% laked sheep blood
[5] = tested on: Desulfovibrio desulfuricans; test: Antimicrobial activity against Desulfovibrio desulfuricans by agar dilution method in presence of 5% laked sheep blood
[6] = tested on: Peptostreptococcus anaerobius; test: Antimicrobial activity against Peptostreptococcus anaerobius by agar dilution method in presence of 5% laked sheep blood
[7] = tested on: Clostridium perfringens; test: Antimicrobial activity against Clostridium perfringens ATCC 13124 by agar dilution method in presence of 5% laked sheep blood

Compound | MIC50 [1] [µg/mL] | MIC90 [1] [µg/mL] | MIC50 [2] [µg/mL] | MIC90 [2] [µg/mL] | MIC50 [3] [µg/mL] | MIC90 [3] [µg/mL] | MIC50 [4] [µg/mL] | MIC90 [4] [µg/mL] | MIC50 [5] [µg/mL] | MIC90 [5] [µg/mL] | MIC50 [6] [µg/mL] | MIC90 [6] [µg/mL] | MIC [7] [µg/mL]
C[C@@H](O)[C@H]1C(=O)N2C(C(=O)O)=C(S[C@@H]3CN[C@H](C(=O)N(C)C)C3)[C@H](C)[C@H]12 [MEROPENEM] | 0.25 | 4 | 0.03 | 0.125 | 0.03 | 0.125 | 0.03 | 0.125 | 0.06 | 0.125 | 0.25 | 2 | ≤ 0.015
CC(=N)N1CC[C@H](SC2=C(C(=O)O)N3C(=O)[C@H]([C@@H](C)O)[C@H]3C2)C1 | 1 | 4 | 0.125 | 2 | 0.125 | 2 | 0.125 | 2 | 0.5 | 1 | 0.125 | 1 | 0.03
C[C@@H](O)[C@H]1C(=O)N2C(C(=O)O)=C(S[C@H]3C[C@@H](C(=O)N4CC[C@H](NC(=O)CNC(=N)N)C4)N(C)C3)[C@H](C)[C@H]12 [TOMOPENEM] | 0.5 | 4 | ≤ 0.015 | 0.5 | ≤ 0.015 | 0.5 | ≤ 0.015 | 0.5 | 0.125 | 0.5 | 0.5 | 4 | 0.03
Cc1ncc([N+](=O)[O-])n1CCO [METRONIDAZOLE] | 0.5 | 1 | ≤ 0.015 | 0.5 | ≤ 0.015 | 0.5 | ≤ 0.015 | 0.5 | 0.125 | 0.25 | 0.125 | 0.5 | 1
C[C@@H](O)[C@H]1C(=O)N2C(C(=O)O)=C(S[C@@H]3CN[C@H](CNS(N)(=O)=O)C3)[C@H](C)[C@H]12 [DORIPENEM] | 0.5 | 4 | 0.03 | 0.25 | 0.03 | 0.25 | 0.03 | 0.25 | 0.125 | 0.25 | 0.25 | 2 | 0.03

From ChEMBL document CHEMBL1275576, “In vitro activity of tomopenem (CS-023/RO4908463) against anaerobic bacteria” (Antimicrob Agents Chemother, 2009)
